Values after ≈ are worked out from the molar mass of the structure shown. Structures can show the parent of a compound that is named as a salt. Where two headings read alike, the source gives them in different places.
How the values were obtained:
[1] = test system: Nippostrongylus brasiliensis; experiment: Test 2: activity against roundworms in rats, treatment 24 hours after infection, worm counts 6 days after dosing; assay type: in vivo
Method: Test 2 -- Rats were infected with 100 Nippostrongylus brasiliensis larvae each, by the subcutaneous route. After 24 hours the rats were randomised and allotted to groups of 5 animals each, ready for treatment. Doses of the test compound were then administered to each group by the oral, subcutaneous and intraperitoneal routes respectively, one group of 10 animals being left untreated as a control. All the rats were killed for post-mortem worm counts 6 days after dosing. The activities, expressed in terms of the percentage reductions in mean worm load of the treated groups or damage to the worms compared with the untreated control group, are given below in Table I.

[2] = test system: Nippostrongylus brasiliensis; experiment: Test 1: activity against roundworms in rats, treatment 6 days after infection (patent infection), worm counts 48 hours after treatment; assay type: in vivo
Method: Test 1 - Rats were infected with 100 Nippostrongylus brasiliensis larvae each, by the subcutaneous route. After 6 days, when the infection was patent, the rats were randomised and alloted to groups of 10 animals each, ready for treatment. One group was used for each dose level of the test compound and, in each experiment, one group was left untreated as a control. All the rats were killed for post-mortem worm counts 48 hours after treatment. The activity, expressed in terms of the percentage reduction in mean worm load of the treated group compared with the untreated group, is shown in Table I.

[3] = test system: Nippostrongylus brasiliensis eggs; experiment: In vitro activity against roundworms (egg hatching and larvae); assay type: cell-based; details: 96 h, tested at 100, 10, 1 and 0.1 μg/ml, inhibited or delayed hatching of eggs, or killed, retarded growth or reduced activity of larvae during 4 days, read-out: M.I.C. (minimum inhibitory concentration)
Method: Compounds of formula I were tested at concentrations of 100 μg/ml, 10 μg/ml, 1 μg/ml and 0.1 μg/ml in small glass containers. If the compound was not soluble in water, a volatile organic medium, e.g. acetone, chloroform, ethanol or methanol was used. An amount of material appropriate for each final concentration was measured and placed in duplicate test containers and if an organic solvent was used it was allowed to evaporate completely. Nippostrongylus brasiliensis eggs were recovered by saturated saline centrifugal flotation from the faeces of rats heavily infected with third stage larvae six days previously. They were washed several times in water and suspended in water in a suitable concentration. From 25-50 eggs were placed in each container and the final volume was made up by the addition of a very dilute aqueous suspension of mouse faeces which served as the growth medium. The minimum inhibitory concentrations of each compound (M.I.C.), shown in the following Table V was the minimum concentration in μg/ml total liquid volume at which it inhibited or delayed hatching of eggs, or at which it killed, retarded growth or reduced activity of larvae during the 4 days after beginning the test.

[4] = test system: influenza virus type A2 /Hong Kong/5/68; assay type: in vivo; details: mice, 250 mg/kg oral 3 hours before and 1 hour after infection; pooled lungs 24 hours after infection; greatest dilution producing agglutination
[5] = Nippostrongylus brasiliensis, 144 h, rats, Test 2, 1000 mg/kg oral, read-out: Percentage reduction in N.brasiliensis load
[6] = Nippostrongylus brasiliensis, po, 48 h, Test 1, 1000 mg/kg oral, read-out: Percentage reduction in N.brasiliensis load
[7] = Nippostrongylus brasiliensis, ip, 144 h, rats, Test 2, 250 mg/kg intraperitoneal, read-out: Percentage reduction in N.brasiliensis load
[8] = Nippostrongylus brasiliensis, sc, 144 h, rats, Test 2, 250 mg/kg subcutaneous, read-out: Percentage reduction in N.brasiliensis load

CCOC(=O)NC(=S)Nc1ccccc1NC(=O)C(C)N(C)C (racemic) [1-ethoxycarbonyl-3[2-(1-dimethylaminoethylcarbonylamino)phenyl]thiourea]
inhibition in vivo at 1000 mg/kg [1, 5]: 100%
inhibition in vivo at 1000 mg/kg [2, 6]: 97%

CCOCCOC(=O)NC(=S)Nc1ccccc1N [1-(2-ethoxyethoxycarbonyl)-3-(2-aminophenyl)thiourea]
inhibition in vivo at 1000 mg/kg [1, 5]: 90%
worm damage ([1]; rats, Test 2, 1000 mg/kg oral): worm damage

CCCCOC(=O)NC(=S)Nc1ccccc1N [1-butoxycarbonyl-3-(2-aminophenyl)thiourea]
MIC [3]: 1 µg/mL (≈ 3.74 µM)

CCOC(=O)NC(=S)Nc1ccc(NC(=O)OC(C)C)cc1NC(C)=O [1-ethoxycarbonyl-3-(2-acetamido-4-isopropoxycarbonylaminophenyl)thiourea]
inhibition in vivo at 1000 mg/kg [1, 5]: 62%

CCOC(=O)NC(=S)Nc1cc(NC(=O)OC(C)C)ccc1NC(C)=O [1-ethoxycarbonyl-3-(2-acetamido-5-isopropoxycarbonylaminophenyl)thiourea]
Haemagglutinin titre-treated animals [4]: 1/256

CCOC(=O)NC(=S)Nc1ccc(Cl)cc1N [1-ethoxycarbonyl-3-(2-amino-4-chlorophenyl)thiourea]
MIC [3]: 10 µg/mL (≈ 36.5 µM)

CCCCc1ccc(NC(=S)NC(=O)OCC)c(N)c1 [1-ethoxycarbonyl-3-(2-amino-4-n-butylphenyl)-thiourea]
MIC [3]: 1 µg/mL (≈ 3.39 µM)

CCCCN(CCCC)CC(=O)Nc1ccccc1NC(=S)NC(=O)OCC [1-ethoxycarbonyl-3-(2-di-n-butylaminoacetamidophenyl)thiourea hydrochloride]
inhibition in vivo at 1000 mg/kg [1, 5]: 97%
MIC [3]: 0.1 µg/mL

CCOC(=O)NC(=S)Nc1ccccc1NC(=O)CN(CC)CC [1-ethoxycarbonyl-3-(2-diethylaminoacetamidophenyl)thiourea hydrochloride]
inhibition in vivo at 1000 mg/kg [1, 5]: 100%
inhibition in vivo at 250 mg/kg [1, 7]: 99%
inhibition in vivo at 250 mg/kg [1, 8]: 95%
inhibition in vivo at 1000 mg/kg [2, 6]: 44%
MIC [3]: 0.1 µg/mL

CCOC(=O)NC(=S)Nc1cc(NC(=O)OC(C)C)ccc1NC(=O)CN(C)C [1-ethoxycarbonyl-3-(2-dimethylaminoacetamido-5-isopropoxycarbonylaminophenyl)-thiourea hydrochloride]
inhibition in vivo at 1000 mg/kg [1, 5]: 100%
inhibition in vivo at 250 mg/kg [1, 7]: 50%
inhibition in vivo at 250 mg/kg [1, 8]: 60%
MIC [3]: 100 µg/mL

CCOC(=O)NC(=S)Nc1cc(NC(=O)OC)ccc1NC(=O)CN(C)C [1-ethoxycarbonyl-3-(2-dimethylaminoacetamido-5-methoxycarbonylaminophenyl)thiourea hydrochloride]
inhibition in vivo at 1000 mg/kg [1, 5]: 100%

CCOC(=O)NC(=S)Nc1ccccc1NC(=O)CN(C)C [1-ethoxycarbonyl-3-(2-dimethylaminoacetamidophenyl)thiourea hydrochloride]
inhibition in vivo at 1000 mg/kg [1, 5]: 98%
inhibition in vivo at 125 mg/kg ([1]; Nippostrongylus brasiliensis, ip, 144 h, rats, Test 2, 125 mg/kg intraperitoneal, read-out: Percentage reduction in N.brasiliensis load): 85%
inhibition in vivo at 100 mg/kg ([1]; Nippostrongylus brasiliensis, sc, 144 h, rats, Test 2, 100 mg/kg subcutaneous, read-out: Percentage reduction in N.brasiliensis load): 76%
inhibition in vivo at 1000 mg/kg [2, 6]: 85%
MIC [3]: 0.1 µg/mL

CCOC(=O)NC(=S)Nc1ccccc1NC(=O)CN1CCOCC1 [1-ethoxycarbonyl-3-(2-morpholinoacetamidophenyl)thiourea hydrochloride]
inhibition in vivo at 1000 mg/kg [1, 5]: 99%
MIC [3]: 0.1 µg/mL

CCOC(=O)NC(=S)Nc1ccccc1NC(=O)CN1CCCCC1 [1-ethoxycarbonyl-3-(2-piperidinoacetamidophenyl)thiourea hydrochloride]
inhibition in vivo at 1000 mg/kg [1, 5]: 98%
inhibition in vivo at 1000 mg/kg [2, 6]: 85%
MIC [3]: 1 µg/mL

CCOC(=O)NC(=S)Nc1ccccc1NC(=O)C[N+](C)(C)C [1-ethoxycarbonyl-3-(2-trimethylammoniumacetamidophenyl)thiourea iodide]
inhibition in vivo at 1000 mg/kg [1, 5]: 60%
worm damage ([1]; rats, Test 2, 1000 mg/kg oral): worm damage
MIC [3]: 0.1 µg/mL

CCCCc1ccc(NC(=O)CN(C)C)c(NC(=S)NC(=O)OCC)c1 [1-ethoxycarbonyl-3-(5-n-butyl-2-dimethylaminoacetamidophenyl)thiourea hydrochloride]
inhibition in vivo at 1000 mg/kg [1, 5]: 88%
inhibition in vivo at 1000 mg/kg [2, 6]: 30%
MIC [3]: 0.1 µg/mL

CCOC(=O)NC(=S)Nc1ccccc1NC(=O)CN1C[C@@H](C)O[C@@H](C)C1 [1-ethoxycarbonyl-3-[2-(2,6-cis-dimethylmorpholinoacetamido)phenyl]thioureahydrochloride]
inhibition in vivo at 250 mg/kg [1, 7]: 93%
inhibition in vivo at 250 mg/kg [1, 8]: 95%
MIC [3]: 0.1 µg/mL

CCOC(=O)NC(=S)Nc1ccccc1NC(=O)CN1CCN(C)CC1.Cl [1-ethoxycarbonyl-3-[2-(4-methylpiperazin-1-ylacetamido)phenyl]thiourea hydrochloride]
inhibition in vivo at 1000 mg/kg [1, 5]: 100%
inhibition in vivo at 250 mg/kg [1, 7]: 98%
inhibition in vivo at 250 mg/kg [1, 8]: 93%
worm damage ([2]; Test 1, 1000 mg/kg oral): worm damage
MIC [3]: 0.1 µg/mL

CCOC(=O)NC(=S)Nc1ccccc1NC(=O)CN(C)Cc1ccccc1 [1-ethoxycarbonyl-3-[2-(N-benzyl-N-methylaminoacetamido)-phenyl]thiourea hydrochloride]
inhibition in vivo at 1000 mg/kg [1, 5]: 99%
worm damage ([1]; rats, Test 2, 1000 mg/kg oral): worm damage
inhibition in vivo at 1000 mg/kg [2, 6]: 50%
worm damage ([2]; Test 1, 1000 mg/kg oral): worm damage
MIC [3]: 0.1 µg/mL

COC(=O)NC(=S)Nc1ccc(NC(=O)OC(C)C)cc1NC(C)=O [1-methoxycarbonyl-3-(2-acetamido-4-isopropoxycarbonylaminophenyl)thiourea]
Haemagglutinin titre-treated animals [4]: 1/256

CCOC(=O)Nc1ccc(NC(=S)NC(=O)OC)c(N)c1 [1-methoxycarbonyl-3-(2-amino-4-ethoxycarbonylaminophenyl)thiourea]
inhibition in vivo at 1000 mg/kg [1, 5]: 99%
MIC [3]: 10 µg/mL (≈ 32 µM)

COC(=O)NC(=S)Nc1ccc(C)cc1N [1-methoxycarbonyl-3-(2-amino-4-methylphenyl)thiourea]
inhibition in vivo at 1000 mg/kg [1, 5]: 97%
worm damage ([1]; rats, Test 2, 1000 mg/kg oral): worm damage
MIC [3]: 100 µg/mL (≈ 418 µM)

COC(=O)NC(=S)Nc1ccccc1N [1-methoxycarbonyl-3-(2-aminophenyl)thiourea hydrochloride]
inhibition in vivo at 1000 mg/kg [1, 5]: 100%
inhibition in vivo at 1000 mg/kg [2, 6]: 100%

COC(=O)NC(=S)Nc1ccccc1N.O=[N+]([O-])O [1-methoxycarbonyl-3-(2-aminophenyl)thiourea nitrate]
inhibition in vivo at 1000 mg/kg ([1]; Nippostrongylus brasiliensis, po, 144 h, read-out: Percentage reduction in N.brasiliensis load, rats, Test 2, 1000 mg/kg oral): 99%
Percentage reduction in N.brasiliensis load ([2]; Test 1, 1000 mg/kg oral): 99%

COC(=O)NC(=S)Nc1ccccc1N.Cc1ccc(S(=O)(=O)O)cc1 [1-methoxycarbonyl-3-(2-aminophenyl)thiourea toluene-p-sulphonate]
Percentage reduction in N.brasiliensis load ([1]; rats, Test 2, 1000 mg/kg oral): 99%
Percentage reduction in N.brasiliensis load ([2]; Test 1, 1000 mg/kg oral): 98%

COC(=O)NC(=S)Nc1ccc(C(C)=O)cc1N [1-methoxycarbonyl-3-(4-acetyl-2-aminophenyl)thiourea]
inhibition in vivo at 1000 mg/kg [1, 5]: 73%
worm damage ([1]; rats, Test 2, 1000 mg/kg oral): worm damage

CCCCc1ccc(NC(=S)NC(=O)OC)c(NC(=O)OCC)c1 [1-methoxycarbonyl-3-(4-n-butyl-2-ethoxycarbonylaminophenyl)thiourea]
inhibition in vivo at 500 mg/kg ([2]; Nippostrongylus brasiliensis, po, 48 h, Test 1, 500 mg/kg oral, read-out: Percentage reduction in N.brasiliensis load): 40%
worm damage ([2]; Test 1, 500 mg/kg oral): worm damage
MIC [3]: 0.1 µg/mL (≈ 0.283 µM)

COC(=O)NC(=S)Nc1ccccc1NC(=O)C=CC(=O)O [1-methoxycarbonyl-3-[2-(3-carboxyacrylamido)phenyl]thiourea]
inhibition in vivo at 1000 mg/kg [1, 5]: 99%
MIC [3]: 1 µg/mL (≈ 3.09 µM)

COC(=O)NC(=S)Nc1ccccc1NC(=O)CCN(C)C.Cl [1-methoxycarbonyl-3-[2-(3-dimethylaminopropionamido)phenyl]thiourea hydrochloride]
inhibition in vivo at 1000 mg/kg [1, 5]: 98%
worm damage ([1]; rats, Test 2, 1000 mg/kg oral): worm damage
inhibition in vivo at 1000 mg/kg [2, 6]: 20%
worm damage ([2]; Test 1, 1000 mg/kg oral): worm damage
MIC [3]: 1 µg/mL

C#CCOC(=O)NC(=S)Nc1ccccc1N [1-propargyloxycarbonyl-3-(2-aminophenyl)thiourea]
inhibition in vivo at 1000 mg/kg [1, 5]: 100%
inhibition in vivo at 1000 mg/kg [2, 6]: 76%
worm damage ([2]; Test 1, 1000 mg/kg oral): worm damage
MIC [3]: 1 µg/mL (≈ 4.01 µM)

— patent US4005217A, “Treatment of helminth infections with substituted phenyl-thiourea derivatives” (May & Baker Limited, priority 1970, dated 1977)
